Data: paper PMC11259170, “Small-molecule probe for IBD risk variant GPR65 I231L alters cytokine signaling networks through positive allosteric modulation” (Science Advances, 2024)
Like-named read-outs stand apart in the source and are kept apart here.

Key:
[1] = biological target: T1, hGPR65 (Homo sapiens, UniProt Q8IYL9); assay: cAMP detection in HeLa expression cell line, hGPR65; format: cell-based; conditions: for EC50 / Emax / hGPR Max Activity: NA = no activity; for EC50: read-out: hGPR EC50; for Emax: HeLa, read-out: hGPR Max Activity %; for Emax / hGPR Max Activity: relative to 100uM forskolin (100%) and DMSO (0%)
T1 construct: expressed in transfected cells; host or cells: HeLa (ATCC CCL-2), lentiviral transduction, pLX317
Description: (§1) HeLa stable expression cell lines were produced by lentiviral transduction. Briefly, lentiviral plasmids for each GPCR with a C-terminal V5 Tag ([…]) were made in a pLX317 backbone using competent Escherichia coli (New England Biolabs, C3050H). Lenti-X 293 T (Takara, 632810) cells were transfected with the lentiviral plasmids to produce virus. Low-passage HeLa cells (American Type Culture Collection, CCL-2) were then transduced with lentivirus. After 48 hours, HeLa cells were cultured under selection with puromycin (3 μg/ml) and allowed to recover and expand before storing stocks in liquid nitrogen.
(§2) cAMP was measured in cells using the Lance Ultra cAMP Kit. HeLa cells were cultured under puromycin (3 μg/ml) selection. One day before the experiment, cells were seeded in T75 flasks and allowed to adhere overnight. On the day of the experiment, cells were washed twice with Dulbecco’s PBS and lifted using prewarmed 1× versene solution (Gibco, 15040066). Cells were counted in HBSS (Gibco, 14025092) and then resuspended in stimulation buffer prepared according to the manufacturer’s instructions and adjusted to pH 7.2 using 1 M sodium hydroxide. Cells were added to the plate at a density of 1500 cells per well in white opaque 384-well assay ready microplates containing 100 nl of 10 mM compound in DMSO. Cells were stimulated for 30 min at RT, then lysed and incubated with detection reagents for 1 hour in the dark at RT. Plates were read on BMG Labtech PHERAstar FSX (excitation, 337 nm; emission, 620 and 665 nm). Data analysis was performed using GraphPad Prism.

[2] = biological target: T2, mGPR65 (Mus musculus, UniProt Q61038); assay: cAMP detection in HeLa expression cell line, mGPR65; format: cell-based; conditions: for EC50: read-out: mGPR EC50; for Emax: HeLa, read-out: mGPR Max Activity %; for Emax / mGPR Max Activity: relative to 100uM forskolin (100%) and DMSO (0%)
T2 construct: expressed in transfected cells; host or cells: HeLa (ATCC CCL-2), lentiviral transduction, pLX317
Description: as §1, §2

[3] = system: GFP-expressing HeLa cells; assay: cAMP detection in HeLa expression cell line, GFP control; format: cell-based, human; conditions: Homo sapiens, HeLa; for Emax: relative to 100uM forskolin (100%) and DMSO (0%), read-out: GFP Max Activity %
Description: as §1, §2

[4] = 1st mGPR column pair, NA = no activity
[5] = 2nd mGPR column pair, NA = no activity
[6] = 2nd GFP column pair, NA = no activity
[7] = 3rd mGPR column pair, NA = no activity
[8] = 1st GFP column pair, NA = no activity

T1 sequence (Q8IYL9 whole entry): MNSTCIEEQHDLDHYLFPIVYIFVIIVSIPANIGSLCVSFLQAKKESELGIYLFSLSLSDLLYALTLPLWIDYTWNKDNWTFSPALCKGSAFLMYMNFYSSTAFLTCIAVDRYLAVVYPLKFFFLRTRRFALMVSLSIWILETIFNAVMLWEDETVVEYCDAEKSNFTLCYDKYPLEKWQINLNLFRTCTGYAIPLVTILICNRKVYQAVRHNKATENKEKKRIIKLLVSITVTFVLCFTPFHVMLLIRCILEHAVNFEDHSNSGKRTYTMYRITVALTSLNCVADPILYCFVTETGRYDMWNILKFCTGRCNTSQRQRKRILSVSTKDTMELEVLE
T2 sequence (Q61038 whole entry): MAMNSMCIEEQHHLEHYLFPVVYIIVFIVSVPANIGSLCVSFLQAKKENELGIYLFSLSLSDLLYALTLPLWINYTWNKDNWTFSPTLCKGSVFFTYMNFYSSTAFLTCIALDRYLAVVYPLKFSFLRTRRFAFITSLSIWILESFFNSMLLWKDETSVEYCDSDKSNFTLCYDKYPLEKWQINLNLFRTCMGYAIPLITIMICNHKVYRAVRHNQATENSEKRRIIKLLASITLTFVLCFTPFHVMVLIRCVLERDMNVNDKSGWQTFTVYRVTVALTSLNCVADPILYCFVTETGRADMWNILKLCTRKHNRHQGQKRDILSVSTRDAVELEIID

| Structure (SMILES) | EC50 ([1]; 1st hGPR column pair) [µM] | EC50 ([1]; 2nd hGPR column pair) [µM] | Emax ([1]; 1st hGPR column pair) [%] | Emax ([1]; 2nd hGPR column pair) [%] | EC50 [2, 4] [µM] | EC50 [2, 5] [µM] | Emax [2, 5] [%] | Emax ([2]; NA = no activity) [%] | EC50 [3, 8] [µM] | Emax [3, 8] [%] | also measured |
| --- | --- | --- | --- | --- | --- | --- | --- | --- | --- | --- | --- |
| CCCc1cc(-c2cc(O)n3ncc(C(=O)Nc4ccccc4)c3n2)no1 [BRD0124] | 1.12 | 1.75 | 62.1 | 71.8 | 0.247 | 0.151 | 56.2 | 63 | – | – | EC50 [3, 6]: 24.6 µM; Emax [3, 6]: 2.25% |
| CCS(=O)(=O)c1ccc(NC(=O)c2cnn3c(O)cc(-c4ccc(COC)cc4)nc23)cc1 [BRD7157] | – | – | – | – | 10.7 | 14.6 | 19.6 | 64.9 | – | – | EC50 [1]: 27.2 µM; hGPR Max Activity [1]: 17.41%; EC50 [2, 7]: 4.47 µM; mGPR Max Activity ([2]; NA = no activity): 44.17%; EC50 [3, 6]: 16.7 µM; Emax [3, 6]: 6.57% |
| COCc1ccc(-c2cc(O)n3ncc(C(=O)Nc4ccc(NC(C)=O)cc4)c3n2)cc1 [BRD9998] | 17.6 | – | 1.34 | – | – | – | – | – | 91.8 | 3.25 | – |
| O=C(O)c1cnn2c(O)cc(-c3ccc(F)cc3)nc12 [BRD7884] | – | – | – | – | – | – | – | – | 9.18 | 3.25 | – |
| Cc1n[nH]c(C)c1CCc1cc(O)n2ncc(C(=O)Nc3ccc(Cl)cc3)c2n1 [BRD1303] | – | – | – | – | 15.9 | – | – | 10.7 | 38.6 | 5.8 | – |
| O=C(O)c1cnn2c(O)cc(-c3ccccc3)nc12 [BRD3374] | – | – | – | – | – | – | – | – | 3.78 | 4.66 | – |
| COCc1ccc(-c2cc(O)n3ncc(C(=O)NC4CCOCC4)c3n2)cc1 [BRD0202] | – | – | – | – | – | – | – | – | 15.6 | 6.11 | – |
| CCN(CC)C(=O)c1cnn2c(O)cc(-c3ccc(COC)cc3)nc12 [BRD7582] | 2.64 | – | 4.89 | – | – | – | – | – | 6.33 | 10.8 | – |
| COc1ncccc1-c1cc(O)n2ncc(C(=O)Nc3ccc(Cl)cc3)c2n1 [BRD8007] | – | – | – | – | 2.17 | – | – | 20 | 6.14 | 6.72 | – |
| O=C(Nc1ccccc1)c1cnn2c(O)cc(COc3ccccc3)nc12 [BRD5802] | 89.8 | – | 55.7 | – | – | – | – | – | 41.4 | 5.04 | – |
| Cc1ccc(NC(=O)c2cnn3c(O)cc(COc4ccccc4)nc23)cc1 [BRD6694] | 8.03 | 4.64 | 20.7 | 22.4 | – | 19.7 | 5.79 | – | – | – | – |
| Cc1ccc(NC(=O)c2cnn3c(O)cc(-c4ccc5ccccc5c4)nc23)cc1 [BRD7102] | 0.272 | 0.151 | 79.7 | 72.5 | 0.191 | 0.269 | 35.2 | 40.7 | – | – | potency and total cAMP production relative to BRD2813 ([1]; receptor not given): improved potency but had little effect on total cAMP production |
| Cc1ccc(NC(=O)c2cnn3c(O)cc(-c4cnc(N5CCOCC5)c(Cl)c4)nc23)cc1 [BRD5065] | 2.39 | 1.87 | 49.7 | 39.5 | 0.513 | 1.16 | 51.8 | 56.5 | – | – | – |
| Cc1ccc(NC(=O)c2cnn3c(O)cc(-c4ccc(Cl)cc4)nc23)cc1 [BRD2007] | 0.409 | 0.247 | 79.1 | 81.4 | 0.644 | 0.64 | 22.7 | 24.9 | – | – | – |
| Cc1ccc(NC(=O)c2cnn3c(O)cc(-c4ccc(-c5ccccc5O)cc4)nc23)cc1 [BRD1689] | 3.57 | 5.62 | 79 | 74.3 | 1.58 | 2.04 | 45.5 | 54 | – | – | – |
| COCc1ccc(-c2cc(O)n3ncc(C(=O)Nc4ccccc4C)c3n2)cc1 [BRD2974] | – | – | – | – | 26.4 | – | – | 8.27 | 3.66 | 19.4 | – |
| Cc1ccc(NC(=O)c2cnn3c(O)cc(-c4ccc(N5CCOCC5)nc4)nc23)cc1 [BRD5064] | 5.02 | 28.4 | 56.7 | 100 | 3.41 | 4.29 | 33.9 | 37.4 | – | – | – |
| CCn1cc(Cl)c(-c2cc(O)n3ncc(C(N)=O)c3n2)n1 [BRD8068] | – | – | – | – | 16.4 | – | – | 13.4 | 52.9 | 40.7 | – |
| Cc1ccc(NC(=O)c2cnn3c(O)cc(-c4ccc(N5CCCC5)cc4)nc23)cc1 [BRD4336] | 8.86 | – | 14.5 | – | – | – | – | – | 13.8 | 9.65 | – |
| COCc1ccc(-c2cc(O)n3ncc(C(=O)Nc4ccc(C(=O)OC)cc4)c3n2)cc1 [BRD0592] | 1.27 | 1.25 | 68.9 | 68.2 | 0.82 | 0.563 | 57 | 64.1 | – | – | – |
| Cc1ccc(NC(=O)c2cnn3c(O)cc(Cc4ccc5ccccc5c4)nc23)cc1 [BRD7330] | – | – | – | – | – | – | – | – | – | – | Emax ([2]; first pair): 11.6%; EC50 ([2]; SAR cAMP assay, first EC50/Max pair): 0.383 µM; EC50 ([3]; SAR cAMP assay, first EC50/Max pair of GFP control columns): 2.32 µM; Emax ([3]; first pair): 1.96% |
| CC(C)OCc1ccc(-c2cc(O)n3ncc(C(=O)Nc4ccccn4)c3n2)cc1 [BRD5074] | 7.02 | 8.96 | 84.1 | 75.9 | 9.32 | – | – | 78 | – | – | – |
| COCc1ccc(-c2cc(O)n3ncc(C(=O)Nc4ccc(C(=O)N(C)C)cc4)c3n2)cc1 [BRD1926] | 34.1 | – | 11 | – | 21.5 | – | – | 28.4 | – | – | – |
| COc1cccc(Cc2cc(O)n3ncc(C(=O)Nc4ccc(C)cc4)c3n2)c1 [BRD5386] | – | – | – | – | 2.01 | 2.17 | 16.4 | 39.5 | – | – | EC50 [1]: 1.96 µM; hGPR Max Activity [1]: 4.575%; EC50 [2, 7]: 0.425 µM; mGPR Max Activity ([2]; NA = no activity): 21.71% |
